Source: patent US20190167647A1, “PHARMACEUTICAL COMPOSITION FOR STROKE TREATMENT BASED ON AMPK INHIBITION” (INDUSTRY ACADEMY COOPERATION FOUNDATION OF SEJONG UNIVERSITY, priority 2016, published 2019)

Key:
[1] = system: cultured cerebral cortex neurons of a mouse; assay: Inhibition of a variety of neurotoxicity, LDH assay (quaternary screening); type: cell-based; conditions: 20 μM, NMDA, FeCl2, H2O2, TPEN, staurosporine, etoposide toxicity
Description: More particularly, the cultured cerebral cortex neurons of a mouse were treated with 50 μM NMDA, 50 μM FeCl2, 100 μM H2O2, 2 μM TPEN (N,N,N′,N′-tetrakis (2-pyridylmethyl) ethylenediamine, Sigma), 500 nM staurosporine (Abcam) and 10 μM etoposide (Sigma), respectively, to induce neurotoxicity, followed by treatment using the selected 7 compounds at a concentration of 20 μM in order to observe neuro-protective effects. A degree of apoptosis of these cells was quantified by LDH assay. The neurotoxicity models used above include, for example, excitotoxicity, oxidative damage and apoptosis that are considered as a cause mechanism of stroke, in particular, the excitotoxicity model was NMDA, the oxidative damage model was iron toxicity and H2O2 toxicity models, and the apoptosis model was TPEN, staurosporine and etoposide toxicity models. The TPEN is a zinc chelator which is well known to cause typical apoptosis in neuronal cells, staurosporine is an enzyme inhibitor (kinase inhibitor) which is also well known as one of typical apoptosis inductive materials, and etoposide is a drug known to cause apoptosis due to DNA damage.

[2] = system: male Sprague-Dawley (SD) rats; assay: Acute toxicity test; type: in vivo; parameters: RBC: unit not given here; conditions: 75 μg/kg intra-cerebroventricular
Excerpt: This procedure was repeated 4 times.
Further, the rat was sacrificed, and specific organs such as the liver, spleen and kidney were extracted, followed by measurement of weights thereof (FIG. 7).

[3] = Free zinc concentration by pZn meter (test tube); type: physicochemical; conditions: 2.5 to 20 μM drug, ZnAF 2.5 μM
Description: In order to measure free zinc concentration levels, the drug #28 of the present invention was used for treatment in different concentrations (2.5 to 20 μM) along with ZnAF (2.5 μM) as a zinc fluorescent material on a test tube. On the other hand, a control group uses clioquinol (1 to 5 μM) well known as a very stronger zinc chelator. A free zinc concentration was measured by a pZn meter (NeuroBioTex Inc.).

[4] = system: neuronal cells; assay: H2O2-mediated intracellular zinc increase, FluoZin-3 staining; type: cell-based; conditions: FluoZin-3, confocal microscopy

O=C1N=C(Nc2cccc(O)c2)S/C1=C\c1c[nH]c2ccccc12 [compound 28, (Z)-5-((1H-indol-3-yl)methylene)-2-((3-hydroxyphenyl)amino)thiazol-4(5H)-one]
inhibitory effects on neurotoxicity [1]: inhibitory effects on any toxicity | toxicity by blood indicators compared to control group [2]: noticeable toxicity was not observed | dead rats ([2]; 24 hours): dead rats were not found | ALT ([2]; n = 4, blood): 54.5 ± 8.2 U/L | AST ([2]; n = 4, blood): 142.3 ± 50.7 U/L | BUN ([2]; n = 4, blood): 17.6 ± 1.8 mg/dL | CREA ([2]; n = 4, blood): 0.5 ± 0.0 mg/dL | GLU ([2]; n = 4, blood): 174.6 ± 18.0 mg/dL | RBC ([2]; n = 4, blood): 7.4 ± 0.5 ×10^3 | WBCB ([2]; n = 4, blood): 11.6 ± 1.9 ×10^3 cell/uL | free zinc concentration [3]: reduced in a concentration-dependent manner | zinc in the neuronal cells during H2O2 toxicity [4]: zinc reduction in the neuronal cells
